# Assay results as given in patent publication US9326516B2, “Molecules having certain pesticidal utilities, and intermediates, compositions, and processes related thereto” (Dow AgroSciences LLC, priority 2014, dated 2016).
# What was measured:
# Assay type in all cases: in vivo
# [1] = tested on: Beet Armyworm (Spodoptera exigua, LAPHEG); assay: Bioassay on Beet Armyworm (BAW), 128-well diet tray assay; conditions: 168 h, 50 μg/cm^2 on artificial diet, second instar BAW larvae, 25° C., five to seven days, average of eight wells, read-out: BAW % Control (or Mortality) rating
# Method: (§1) Certain molecules disclosed in this document were tested against BAW and CEW using procedures described in the following examples. In the reporting of the results, the “BAW & CL Rating Table” was used (See Table Section).
# Bioassays on BAW were conducted using a 128-well diet tray assay. one to five second instar BAW larvae were placed in each well (3 mL) of the diet tray that had been previously filled with 1 mL of artificial diet to which 50 μg/cm^2 of the test compound (dissolved in 50 μL of 90:10 acetone-water mixture) had been applied (to each of eight wells) and then allowed to dry. Trays were covered with a clear self-adhesive cover and held at 25° C., 14:10 light-dark for five to seven days. Percent mortality was recorded for the larvae in each well; activity in the eight wells was then averaged. The results are indicated in the table entitled “Table ABC: Biological Results” (See Table Section).
# [2] = tested on: Cabbage Looper (Trichoplusia ni, TRIPNI); assay: Bioassay on Cabbage Looper (CL), 128-well diet tray assay; conditions: 168 h, 50 μg/cm^2 on artificial diet, second instar CL larvae, 25° C., five to seven days, average of eight wells, read-out: CL % Control (or Mortality) rating
# Method: as §1
# Bioassays on CL were conducted using a 128-well diet tray assay, one to five second instar CL larvae were placed in each well (3 mL) of the diet tray that had been previously filled with 1 mL of artificial diet to which 50 μg/cm^2 of the test compound (dissolved in 50 μL of 90:10 acetone-water mixture) had been applied (to each of eight wells) and then allowed to dry. Trays were covered with a clear self-adhesive cover and held at 25° C., 14:10 light-dark for five to seven days. Percent mortality was recorded for the larvae in each well; activity in the eight wells was then averaged. The results are indicated in the table entitled “Table ABC: Biological Results” (See Table Section).
# [3] = tested on: Green Peach Aphid (Myzus persicae, MYZUPE); assay: Bioassay on Green Peach Aphid (GPA), foliar spray on cabbage seedlings; conditions: 72 h, 200 ppm spray on infested cabbage seedlings, graded after three days, Abbott corrected % control, read-out: GPA % Control (or Mortality) rating
# Method: Certain molecules disclosed in this document were tested against GPA using procedures described in the following example. In the reporting of the results, the “GPA Rating Table” was used (See Table Section).
# Cabbage seedlings grown in 3-inch pots, with 2-3 small (3-5 cm) true leaves, were used as test substrate. The seedlings were infested with 20-50 GPA (wingless adult and nymph stages) one day prior to chemical application. Four pots with individual seedlings were used for each treatment. Test compounds (2 mg) were dissolved in 2 mL of acetone/methanol (1:1) solvent, forming stock solutions of 1000 ppm test compound. The stock solutions were diluted 5× with 0.025% Tween 20 in water to obtain the solution at 200 ppm test compound. A hand-held aspirator-type sprayer was used for spraying a solution to both sides of […] leaves until runoff. Reference plants (solvent check) were sprayed with the diluent only containing 20% by volume of acetone/methanol (1:1) solvent. Treated plants were held in a holding room for three days at approximately 25° C. and ambient relative humidity (RH) prior to grading. Evaluation was conducted by counting the number of live aphids per plant under a microscope. Percent Control was measured by using Abbott's correction formula (W. S. Abbott, “A Method of Computing the Effectiveness of an Insecticide” J. Econ. Entomol. 18 (1925), pp. 265-267) as follows. Corrected % Control=100*(X−Y)/X where X=No. of live aphids on solvent check plants and Y=No. of live aphids on treated plants
# [4] = tested on: Yellow Fever Mosquito (Aedes aegypti, AEDSAE); conditions: about 1 day-old larvae, master plate 4000 ppm in DMSO diluted, room temperature, scored after 3 days on mortality
# Method: Certain molecules disclosed in this document were tested against YFM using procedures described in the following paragraph. In the reporting of the results, the “YFM Rating Table” was used (See Table Section).
# Master plates containing 400 μg of a molecule dissolved in 100 μL of dimethyl sulfoxide (DMSO) (equivalent to a 4000 ppm solution) are used. A master plate of assembled molecules contains 15 μL per well. To this plate, 135 μL of a 90:10 water:acetone mixture is added to each well. A robot (Biomek® NXP Laboratory Automation Workstation) is programmed to dispense 15 μL aspirations from the master plate into an empty 96-well shallow plate (“daughter” plate). There are 6 reps (“daughter” plates) created per master. The created daughter plates are then immediately infested with YFM larvae.
# The day before plates are to be treated, mosquito eggs are placed in Millipore water containing liver powder to begin hatching (4 g. into 400 mL). After the daughter plates are created using the robot, they are infested with 220 μL of the liver powder/larval mosquito mixture (about 1 day-old larvae). After plates are infested with mosquito larvae, a non-evaporative lid is used to cover the plate to reduce drying. Plates are held at room temperature for 3 days prior to grading. After 3 days, each well is observed and scored based on mortality.
Compound,mortality at 50 µg/cm2 [1] [%],mortality at 50 µg/cm2 [2] [%],mortality at 200 ppm [3] [%],YFM % Control (or Mortality) rating [4]
"FC(F)(F)Oc1ccc(-n2cnc(-c3ccc(NC4=NC(c5ccccc5Cl)CO4)cc3)n2)cc1 (centres unmarked) [Compound F11, 4-(2-Chlorophenyl)-N-(4-(1-(4-(trifluoromethoxy)phenyl)-1H-1,2,4-triazol-3-yl)phenyl)-4,5-dihydrooxazol-2-amine]",50 to 100,50 to 100,0,D (No activity noticed in this bioassay)
"FC(F)(F)Oc1ccc(-n2cnc(-c3ccc(NC4=N[C@H](c5ccccc5)CO4)cc3)n2)cc1 [Compound F1, (R)-4-Phenyl-N-(4-(1-(4-(trifluoromethoxy)phenyl)-1H-1,2,4-triazol-3-yl)phenyl)-4,5-dihydrooxazol-2-amine]",50 to 100,50 to 100,80 to 100,B (More than 0-Less than 80)
"FC(F)(F)Oc1ccc(-n2cnc(-c3ccc(NC4=NC(c5ccc(Cl)cc5)CCO4)cc3)n2)cc1 (centres unmarked) [Compound F43, 4-(4-Chlorophenyl)-N-(4-(1-(4-(trifluoromethoxy)phenyl)-1H-1,2,4-triazol-3-yl)phenyl)-5,6-dihydro-4H-1,3-oxazin-2-amine]",0 to 50,50 to 100,80 to 100,B (More than 0-Less than 80)
"FC(F)(F)Oc1ccc(-n2cnc(-c3ccc(NC4=N[C@@H](c5ccccc5)CO4)cc3)n2)cc1 [Compound F2, (S)-4-Phenyl-N-(4-(1-(4-(trifluoromethoxy)phenyl)-1H-1,2,4-triazol-3-yl)phenyl)-4,5-dihydrooxazol-2-amine]",50 to 100,50 to 100,80 to 100,B (More than 0-Less than 80)
"FC(F)(F)Oc1ccc(-n2cnc(-c3ccc(NC4=NC(c5ccc(C(F)(F)F)cc5)CCO4)cc3)n2)cc1 (centres unmarked) [Compound F45, N-(4-(1-(4-(Trifluoromethoxy)phenyl)-1H-1,2,4-triazol-3-yl)phenyl)-4-(4-(trifluoromethyl)phenyl)-5,6-dihydro-4H-1,3-oxazin-2-amine]",50 to 100,50 to 100,80 to 100,B (More than 0-Less than 80)
"FC(F)(F)Oc1ccc(-n2cnc(-c3ccc(NC4=NC(c5ccc(C(F)(F)F)cc5)CO4)cc3)n2)cc1 (centres unmarked) [Compound F5, N-(4-(1-(4-(Trifluoromethoxy)phenyl)-1H-1,2,4-triazol-3-yl)phenyl)-4-(4-(trifluoromethyl)phenyl)-4,5-dihydrooxazol-2-amine]",50 to 100,50 to 100,80 to 100,B (More than 0-Less than 80)
"FC(F)(F)Oc1ccc(-n2cnc(-c3ccc(NC4=N[C@H](c5ccccc5)CCO4)cc3)n2)cc1 [Compound F20, (S)-4-Phenyl-N-(4-(1-(4-(trifluoromethoxy)phenyl)-1H-1,2,4-triazol-3-yl)phenyl)-5,6-dihydro-4H-1,3-oxazin-2-amine]",0,50 to 100,80 to 100,B (More than 0-Less than 80)
"Cc1ccc(C2CCOC(Nc3ccc(-c4ncn(-c5ccc(OC(F)(F)F)cc5)n4)cc3)=N2)cc1 (centres unmarked) [Compound F44, 4-(p-Tolyl)-N-(4-(1-(4-(trifluoromethoxy)phenyl)-1H-1,2,4-triazol-3-yl)phenyl)-5,6-dihydro-4H-1,3-oxazin-2-amine]",0 to 50,50 to 100,80 to 100,B (More than 0-Less than 80)
